According to ChEMBL document CHEMBL5032530, “Discovery of Benzocyclic Sulfone Derivatives as Potent CXCR2 Antagonists for Cancer Immunotherapy” (J Med Chem, 2021):
Activity calls are given as the source filed them. The calls are words filed in the database; no cut-off is given here.

How the values were obtained:
[1] = target: T1, C-X-C chemokine receptor type 2 (Homo sapiens, UniProt P25025); experiment: Antagonist activity at human CXCR2 expressed in HEK293 cells assessed as inhibition of CXCL8-induced beta-arrestin recruitment preincubated for 30 mins followed by addition of agonist incubated for 90 mins by beta arrestin assay; assay type: functional, cell-based
T1 sequence (P25025 whole entry): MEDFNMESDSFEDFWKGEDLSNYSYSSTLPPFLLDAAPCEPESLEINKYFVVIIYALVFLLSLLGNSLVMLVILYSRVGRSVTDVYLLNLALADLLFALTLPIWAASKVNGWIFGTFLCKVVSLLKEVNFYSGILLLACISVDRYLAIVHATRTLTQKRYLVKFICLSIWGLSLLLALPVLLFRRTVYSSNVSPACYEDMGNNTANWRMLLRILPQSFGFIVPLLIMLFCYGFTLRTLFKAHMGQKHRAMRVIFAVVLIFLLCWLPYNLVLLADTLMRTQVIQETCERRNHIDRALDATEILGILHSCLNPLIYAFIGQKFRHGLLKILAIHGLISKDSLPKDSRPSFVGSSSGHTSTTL

[2] = target: T1, C-X-C chemokine receptor type 2; experiment: Displacement of [I-125]-interleukin-8 against human recombinant CXCR2 expressed in CHO-K1 cells incubated for 60 mins by radio ligand binding assay; assay type: cell-based
[3] = target: C-C chemokine receptor type 1 (Homo sapiens) (UniProt P32246); experiment: Agonist activity against CCR1 (unknown origin) assessed as induction of beta-arrestin 2 recruitment at 10 microM by beta arrestin assay relative to control; assay type: functional
Chain of C-C chemokine receptor type 1 (Homo sapiens) (P32246 whole entry): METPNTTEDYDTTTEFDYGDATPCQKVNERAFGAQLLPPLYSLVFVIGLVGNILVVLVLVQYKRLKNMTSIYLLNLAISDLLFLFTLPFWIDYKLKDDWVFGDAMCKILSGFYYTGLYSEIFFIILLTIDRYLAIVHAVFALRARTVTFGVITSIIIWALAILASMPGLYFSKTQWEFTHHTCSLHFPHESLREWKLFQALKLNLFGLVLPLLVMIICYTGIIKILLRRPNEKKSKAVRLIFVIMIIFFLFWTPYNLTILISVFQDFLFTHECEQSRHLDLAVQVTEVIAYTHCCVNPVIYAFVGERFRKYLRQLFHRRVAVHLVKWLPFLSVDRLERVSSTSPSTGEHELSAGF

[4] = target: C-C chemokine receptor type 3 (Homo sapiens) (UniProt P51677); experiment: Agonist activity against CCR3 (unknown origin) assessed as induction of beta-arrestin 2 recruitment at 10 microM by beta arrestin assay relative to control; assay type: functional
Chain of C-C chemokine receptor type 3 (Homo sapiens) (P51677 whole entry): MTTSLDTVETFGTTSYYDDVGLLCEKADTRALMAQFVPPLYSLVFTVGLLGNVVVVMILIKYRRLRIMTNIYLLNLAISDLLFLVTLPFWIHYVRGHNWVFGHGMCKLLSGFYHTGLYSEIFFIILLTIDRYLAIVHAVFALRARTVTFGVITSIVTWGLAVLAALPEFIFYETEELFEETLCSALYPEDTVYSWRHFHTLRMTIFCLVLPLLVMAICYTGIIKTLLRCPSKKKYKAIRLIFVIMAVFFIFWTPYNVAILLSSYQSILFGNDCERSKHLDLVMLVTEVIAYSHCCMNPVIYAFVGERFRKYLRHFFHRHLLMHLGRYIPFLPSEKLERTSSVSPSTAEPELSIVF

[5] = target: C-C chemokine receptor type 4 (Homo sapiens) (UniProt P51679); experiment: Agonist activity against CCR4 (unknown origin) assessed as induction of beta-arrestin 2 recruitment at 10 microM by beta arrestin assay relative to control; assay type: functional
Chain of C-C chemokine receptor type 4 (Homo sapiens) (P51679 whole entry): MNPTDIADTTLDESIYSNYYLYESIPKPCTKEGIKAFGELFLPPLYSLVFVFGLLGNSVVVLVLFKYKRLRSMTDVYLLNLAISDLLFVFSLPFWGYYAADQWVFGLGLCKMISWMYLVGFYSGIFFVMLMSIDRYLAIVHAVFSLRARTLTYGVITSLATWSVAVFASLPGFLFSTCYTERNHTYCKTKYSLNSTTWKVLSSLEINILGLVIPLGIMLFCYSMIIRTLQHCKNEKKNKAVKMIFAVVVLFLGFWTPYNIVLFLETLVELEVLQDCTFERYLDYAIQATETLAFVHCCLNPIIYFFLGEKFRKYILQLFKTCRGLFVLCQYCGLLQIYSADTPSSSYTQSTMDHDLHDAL

[6] = target: C-C chemokine receptor type 5 (Homo sapiens) (UniProt P51681); experiment: Agonist activity against CCR5 (unknown origin) assessed as induction of beta-arrestin 2 recruitment at 10 microM by beta arrestin assay relative to control; assay type: functional
Chain of C-C chemokine receptor type 5 (Homo sapiens) (P51681 whole entry, looked up): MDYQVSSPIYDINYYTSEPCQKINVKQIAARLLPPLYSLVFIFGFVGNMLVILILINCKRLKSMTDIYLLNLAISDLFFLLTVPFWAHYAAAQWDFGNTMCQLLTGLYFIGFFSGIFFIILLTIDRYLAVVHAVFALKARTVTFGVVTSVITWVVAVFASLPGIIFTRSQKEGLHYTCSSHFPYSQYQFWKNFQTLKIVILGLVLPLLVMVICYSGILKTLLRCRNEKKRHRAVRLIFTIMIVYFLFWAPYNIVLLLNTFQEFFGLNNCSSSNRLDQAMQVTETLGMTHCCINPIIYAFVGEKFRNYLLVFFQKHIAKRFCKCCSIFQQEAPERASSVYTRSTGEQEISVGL

[7] = target: C-C chemokine receptor type 5 (Homo sapiens) (UniProt P51681); experiment: Antagonist activity against CCR5 (unknown origin) assessed as inhibition of beta-arrestin 2 recruitment at 10 microM by beta arrestin assay relative to control; assay type: functional; design: scale not given: the % may be the effect or the level left
[8] = target: C-C chemokine receptor type 7 (Homo sapiens) (UniProt P32248); experiment: Agonist activity against CCR7 (unknown origin) assessed as induction of beta-arrestin 2 recruitment at 10 microM by beta arrestin assay relative to control; assay type: functional
Chain of C-C chemokine receptor type 7 (Homo sapiens) (P32248 whole entry): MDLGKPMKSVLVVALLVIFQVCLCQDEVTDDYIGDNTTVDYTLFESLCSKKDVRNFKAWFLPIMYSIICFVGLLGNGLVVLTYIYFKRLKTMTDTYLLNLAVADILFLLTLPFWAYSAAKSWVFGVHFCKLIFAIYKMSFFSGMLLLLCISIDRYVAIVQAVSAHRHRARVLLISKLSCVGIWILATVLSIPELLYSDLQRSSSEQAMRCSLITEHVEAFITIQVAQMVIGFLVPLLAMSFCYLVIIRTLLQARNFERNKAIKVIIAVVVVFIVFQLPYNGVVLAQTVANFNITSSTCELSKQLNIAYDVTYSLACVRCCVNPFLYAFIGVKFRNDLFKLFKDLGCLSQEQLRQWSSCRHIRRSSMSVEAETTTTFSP

[9] = target: C-C chemokine receptor type 7 (Homo sapiens) (UniProt P32248); experiment: Antagonist activity against CCR7 (unknown origin) assessed as inhibition of beta-arrestin 2 recruitment at 10 microM by beta arrestin assay relative to control; assay type: functional; design: scale not given: the % may be the effect or the level left
[10] = target: C-C chemokine receptor type 8 (Homo sapiens) (UniProt P51685); experiment: Agonist activity against CCR8 (unknown origin) assessed as induction of beta-arrestin 2 recruitment at 10 microM by beta arrestin assay relative to control; assay type: functional
Chain of C-C chemokine receptor type 8 (Homo sapiens) (P51685 whole entry): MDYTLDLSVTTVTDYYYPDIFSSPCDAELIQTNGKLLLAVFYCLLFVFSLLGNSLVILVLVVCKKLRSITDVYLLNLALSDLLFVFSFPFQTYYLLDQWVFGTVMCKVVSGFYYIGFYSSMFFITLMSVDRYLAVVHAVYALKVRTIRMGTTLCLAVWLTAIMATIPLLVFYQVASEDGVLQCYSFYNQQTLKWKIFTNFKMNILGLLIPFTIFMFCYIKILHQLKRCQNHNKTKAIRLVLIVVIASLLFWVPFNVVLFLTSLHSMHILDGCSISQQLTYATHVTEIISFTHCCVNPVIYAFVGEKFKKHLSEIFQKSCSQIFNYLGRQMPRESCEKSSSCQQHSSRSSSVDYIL

[11] = target: C-C chemokine receptor type 9 (Homo sapiens) (UniProt P51686); experiment: Agonist activity against CCR9 (unknown origin) assessed as induction of beta-arrestin 2 recruitment at 10 microM by beta arrestin assay relative to control; assay type: functional
Chain of C-C chemokine receptor type 9 (Homo sapiens) (P51686 whole entry): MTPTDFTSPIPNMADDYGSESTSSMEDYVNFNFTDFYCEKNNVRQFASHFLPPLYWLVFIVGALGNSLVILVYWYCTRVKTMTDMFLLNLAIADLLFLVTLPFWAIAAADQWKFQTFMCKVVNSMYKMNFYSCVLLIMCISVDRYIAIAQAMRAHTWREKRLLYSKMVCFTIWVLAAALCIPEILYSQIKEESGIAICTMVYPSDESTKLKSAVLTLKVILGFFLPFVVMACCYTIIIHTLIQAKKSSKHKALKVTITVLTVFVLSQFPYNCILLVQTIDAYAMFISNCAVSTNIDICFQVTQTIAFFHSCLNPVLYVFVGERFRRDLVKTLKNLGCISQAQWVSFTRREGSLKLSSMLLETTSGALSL

[12] = target: C-C chemokine receptor type 10 (Homo sapiens) (UniProt P46092); experiment: Agonist activity against CCR10 (unknown origin) assessed as induction of beta-arrestin 2 recruitment at 10 microM by beta arrestin assay relative to control; assay type: functional
Chain of C-C chemokine receptor type 10 (Homo sapiens) (P46092 whole entry): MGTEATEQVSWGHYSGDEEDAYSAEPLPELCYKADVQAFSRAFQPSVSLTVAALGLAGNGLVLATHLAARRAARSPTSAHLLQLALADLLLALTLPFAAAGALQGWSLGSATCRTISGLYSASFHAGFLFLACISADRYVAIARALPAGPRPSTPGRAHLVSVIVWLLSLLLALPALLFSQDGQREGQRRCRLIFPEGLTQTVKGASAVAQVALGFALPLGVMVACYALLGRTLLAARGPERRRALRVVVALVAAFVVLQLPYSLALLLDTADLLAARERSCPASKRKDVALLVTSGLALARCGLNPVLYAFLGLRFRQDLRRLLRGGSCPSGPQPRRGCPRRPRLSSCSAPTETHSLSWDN

[13] = target: C-C chemokine receptor type 10 (Homo sapiens) (UniProt P46092); experiment: Antagonist activity against CCR10 (unknown origin) assessed as inhibition of beta-arrestin 2 recruitment at 10 microM by beta arrestin assay relative to control; assay type: functional; design: scale not given: the % may be the effect or the level left
[14] = target: Chemerin-like receptor 1 (Homo sapiens) (UniProt Q99788); experiment: Agonist activity against CMKLR1 (unknown origin) assessed as induction of beta-arrestin 2 recruitment at 10 microM by beta arrestin assay relative to control; assay type: functional
Chain of Chemerin-like receptor 1 (Homo sapiens) (Q99788 whole entry): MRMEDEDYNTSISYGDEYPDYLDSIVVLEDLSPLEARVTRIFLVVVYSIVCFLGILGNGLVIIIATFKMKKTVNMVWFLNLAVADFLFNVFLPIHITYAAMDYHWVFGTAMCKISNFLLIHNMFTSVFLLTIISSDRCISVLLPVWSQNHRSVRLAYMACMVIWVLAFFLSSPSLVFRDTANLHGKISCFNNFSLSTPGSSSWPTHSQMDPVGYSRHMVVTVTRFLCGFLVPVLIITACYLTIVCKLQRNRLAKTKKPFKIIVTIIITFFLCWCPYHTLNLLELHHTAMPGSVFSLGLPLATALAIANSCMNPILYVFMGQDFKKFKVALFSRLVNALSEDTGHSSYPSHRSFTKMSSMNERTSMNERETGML

[15] = target: CX3C chemokine receptor 1 (Homo sapiens) (UniProt P49238); experiment: Antagonist activity against CX3CR1 (unknown origin) assessed as inhibition of beta-arrestin 2 recruitment at 10 microM by beta arrestin assay relative to control; assay type: functional; design: scale not given: the % may be the effect or the level left
Chain of CX3C chemokine receptor 1 (Homo sapiens) (P49238 whole entry): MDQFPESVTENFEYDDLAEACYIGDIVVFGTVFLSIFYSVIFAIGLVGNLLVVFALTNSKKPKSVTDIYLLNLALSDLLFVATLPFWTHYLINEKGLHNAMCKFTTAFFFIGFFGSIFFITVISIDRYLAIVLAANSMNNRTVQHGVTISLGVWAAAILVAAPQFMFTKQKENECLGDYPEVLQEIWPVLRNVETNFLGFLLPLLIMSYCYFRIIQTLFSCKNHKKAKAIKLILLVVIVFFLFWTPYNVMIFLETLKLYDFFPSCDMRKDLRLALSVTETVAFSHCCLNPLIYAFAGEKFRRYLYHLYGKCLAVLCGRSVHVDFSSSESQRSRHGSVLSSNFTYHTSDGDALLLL

[16] = target: C-X-C chemokine receptor type 1 (Homo sapiens) (UniProt P25024); experiment: Antagonist activity against CXCR1 (unknown origin) assessed as inhibition of beta-arrestin 2 recruitment at 10 microM by beta arrestin assay relative to control; assay type: functional; design: scale not given: the % may be the effect or the level left
Chain of C-X-C chemokine receptor type 1 (Homo sapiens) (P25024 whole entry): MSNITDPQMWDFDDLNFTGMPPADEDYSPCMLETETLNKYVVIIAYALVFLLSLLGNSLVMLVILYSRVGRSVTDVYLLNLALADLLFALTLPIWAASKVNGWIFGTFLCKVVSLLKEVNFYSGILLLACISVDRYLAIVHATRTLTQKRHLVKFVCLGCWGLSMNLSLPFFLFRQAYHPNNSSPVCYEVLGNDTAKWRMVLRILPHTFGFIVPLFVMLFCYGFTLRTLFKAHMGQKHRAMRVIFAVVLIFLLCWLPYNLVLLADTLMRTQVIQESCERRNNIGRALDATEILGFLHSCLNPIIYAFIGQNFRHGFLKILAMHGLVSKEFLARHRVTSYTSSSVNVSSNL

[17] = target: C-X-C chemokine receptor type 4 (Homo sapiens) (UniProt P61073); experiment: Antagonist activity against CXCR4 (unknown origin) assessed as inhibition of beta-arrestin 2 recruitment at 10 microM by beta arrestin assay relative to control; assay type: functional; design: scale not given: the % may be the effect or the level left
Chain of C-X-C chemokine receptor type 4 (Homo sapiens) (P61073 whole entry): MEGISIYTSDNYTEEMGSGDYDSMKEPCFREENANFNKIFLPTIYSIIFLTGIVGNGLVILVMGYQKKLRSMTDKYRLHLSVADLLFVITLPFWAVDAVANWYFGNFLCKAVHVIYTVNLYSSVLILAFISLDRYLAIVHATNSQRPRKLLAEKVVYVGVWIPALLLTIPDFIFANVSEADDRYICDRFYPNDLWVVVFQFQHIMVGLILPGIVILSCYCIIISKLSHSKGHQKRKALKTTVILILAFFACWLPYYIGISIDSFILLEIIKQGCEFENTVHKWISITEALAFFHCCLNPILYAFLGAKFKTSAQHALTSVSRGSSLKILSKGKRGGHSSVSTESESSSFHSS

[18] = target: Atypical chemokine receptor 3 (Homo sapiens) (UniProt P25106); experiment: Agonist activity against CXCR7 (unknown origin) assessed as induction of beta-arrestin 2 recruitment at 10 microM by beta arrestin assay relative to control; assay type: functional
Chain of Atypical chemokine receptor 3 (Homo sapiens) (P25106 whole entry): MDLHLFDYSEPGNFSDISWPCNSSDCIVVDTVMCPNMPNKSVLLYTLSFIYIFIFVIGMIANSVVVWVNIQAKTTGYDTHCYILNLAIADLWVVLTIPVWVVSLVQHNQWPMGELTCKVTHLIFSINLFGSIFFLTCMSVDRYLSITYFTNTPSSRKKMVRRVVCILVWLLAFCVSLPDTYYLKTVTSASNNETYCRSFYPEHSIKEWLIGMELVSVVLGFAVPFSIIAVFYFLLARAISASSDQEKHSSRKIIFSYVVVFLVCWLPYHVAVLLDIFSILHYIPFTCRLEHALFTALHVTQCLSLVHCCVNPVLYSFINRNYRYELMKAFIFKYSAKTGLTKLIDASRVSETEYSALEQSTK

[19] = Tmax in ICR mouse at 3 mg/kg, iv measured upto 48 hrs; assay type: ADME, organism-based; conditions: in vivo
[20] = Tmax in ICR mouse at 30 mg/kg, po measured upto 48 hrs; assay type: ADME, organism-based; conditions: in vivo
[21] = AUC (0 to t) in ICR mouse at 30 mg/kg, po measured upto 48 hrs; assay type: ADME, organism-based; design: route oral, dose 30 mg/kg, time <=48; conditions: in vivo
[22] = Half life in ICR mouse at 30 mg/kg, po measured upto 48 hrs; assay type: ADME, organism-based; conditions: ICR, in vivo
[23] = Apparent volume of distribution in ICR mouse at 30 mg/kg, po measured upto 48 hrs; assay type: ADME, organism-based; conditions: in vivo
[24] = Oral bioavailability in ICR mouse at 30 mg/kg measured upto 48 hrs; assay type: ADME, organism-based; conditions: in vivo
Panc02 [25] = experiment: Antitumour activity against mouse Panc02 cells xenografted in mouse assessed as tumour growth inhibition at 30 mg/kg, po bid […]; assay type: functional; conditions: read-out: TGI
SW1990 = experiment: Cytotoxicity against human SW1990 cells assessed as reduction in cell viability measured after 72 hrs by CCK8 assay; assay type: cell-based; conditions: SW1990, 72 h
[26] = Cytotoxicity against human PBMC cells assessed as reduction in cell viability measured after 72 hrs by CCK8 assay; assay type: cell-based
Panc02 [27] = experiment: Antitumour activity against mouse Panc02 cells xenografted in mouse assessed as reduction in infiltration of granulocytic MDSCs into tumor tissue at 3 mg/kg, po bid measured after 15 days by flow cytometry analysis; assay type: functional, organism-based; conditions: time 15.0 day
Panc02 [28] = experiment: Antitumour activity against mouse Panc02 cells xenografted in mouse assessed as change in CD11b expressing immune cells infiltration into tumor tissue using LY6G antibody at 30 mg/kg, po bid measured after 15 days by flow cytometry analysis (reference value: 29.7%); assay type: functional; conditions: time 15 day
Panc02 [29] = experiment: Antitumour activity against mouse Panc02 cells xenografted in mouse assessed as change in CD11b expressing immune cells infiltration into tumor tissue using LY6C antibody at 10 mg/kg, po bid measured after 15 days by flow cytometry analysis (reference value: 20.5%); assay type: functional; conditions: time 15 day
Panc02 [30] = experiment: Antitumour activity against mouse Panc02 cells xenografted in mouse assessed as change in CD11b expressing immune cells infiltration into tumor tissue using LY6C antibody at 30 mg/kg, po bid measured after 15 days by flow cytometry analysis (reference value: 20.5%); assay type: functional; conditions: time 15 day

- IC50 [1]: 95 nM
- Ki [2]: 1240 nM
- Activity [3]: < 10%
- Activity [4]: < 10%
- Activity [5]: < 10%
- Activity [6]: < 10%
- Activity [7]: < 10%
- Activity [8]: < 10%
- Activity [9]: 20%
- Activity [10]: < 10%
- Activity [11]: < 10%
- Activity [12]: < 10%
- Activity [13]: < 10%
- Activity [14]: < 10%
- Activity [15]: < 10%
- Activity [16]: 33%
- Activity [17]: 12%
- Activity [18]: < 10%
- Tmax [19]: 1.8 min
- Tmax [20]: 1.41 h
- AUC(0-t) at 48 h [21]: 218 ng·h/mL
- half-life [22]: 4.94 h
- Vz [23]: 939.87 L/kg
- bioavailability [24]: 6.1%
SMILES: Cc1c(F)cccc1NC(=O)Nc1ccc2c(c1O)S(=O)(=O)CCC2
- inhibition in vivo at 30 mg/kg (Panc02 [25]): 61.4%
- IC50 (SW1990): > 10000 nM
- IC50 [26]: > 10000 nM
- Activity (Panc02 [27]): Active
- Activity (Panc02 [28]): 7.6%
- Activity (Panc02 [29]): 15.6%
- Activity (Panc02 [30]): 15.3%
